Source: patent US20050026850A1, “Combination of dehydroepiandrosterone or dehydroepiandrosterone-sulfate with a tyrosine kinase inhibitor, delta opioid receptor antagonist, neurokinin receptor antagonist, or VCAM inhibitor for treatment of asthma or chronic obstructive pulmonary disease” (priority 2003, published 2005)
“And” between values parts separate entries of the source, which are not always exact repeats. Equal entries are not always repeated.

How the values were obtained:
[1] = tested on: rat peritoneal mast cells; assay: Compound 48/80 histamine release from rat peritoneal mast cells; format: cell-based; details: for % Inhibition of Histamine Release: DHEA-S 0; for effect on compound 48/80 induced mast cell degranulation: antagonist alone, 1-100 nM
Intracellular adenosine = assay: In vivo effect on adenosine levels in various rat tissues
[2] = Solid-state stability with and without lactose at 50° C. (DHEA formation by HPLC); format: physicochemical; details: for DHEA % formed from Anhydrous DHEA-S / Percent DHEA formed from DHEA-S Dihydrate: Control, neat, sealed, 25° C.
Text: These conditions were used to stress the formulation in order to predict its long-term stability results. […] The primary degradant is DHEA. […] The materials on accelerated storage become more cohesive with time as evidenced by clumping during sample weighing for chemical analysis. […] This is a considerable disadvantage since lactose is the most commonly used inhalation excipient for dry powder formulations. Continuing with the virtually anhydrous form would mean limiting formulations to neat powder or undertaking more comprehensive safety studies to use a novel excipient.

[3] = HPLC analysis of drug degradation during jet milling micronization; format: physicochemical; details: single-pass and double-pass jet milled, HPLC peak area versus unmilled standard
Experimental: Two vials (A; single-pass; 150 mg) and (B double-pass; 600 mg) of the micronized drug were available for determining drug degradation during jet milling micronization. […] The chromatographic peak area for the HPLC assay of the unmilled drug standard solution (10 mg/ml) gave a value of 23,427. […] The chromatographic peak areas for vials A and B were 11,979 and 11,677, respectively.

[4] = Short-term solution stability of DHEA-S formulation; format: physicochemical; details: 7.5 mg/mL of DHEA-S in 0.12% NaCl, RT
Experimental: Aliquots of this solution are filled into clear glass vials and stored at RT (24-26° C.) and at 40° C. The samples are checked daily for DHEA-S content, DHEA content, and appearance. For each time point, duplicate samples are withdrawn and diluted from each vial. […] The study is stopped on day three. […] The solution should easily be stable for the day of reconstitution in a clinical trial. The following section describes the aerosol properties of this formulation.

Nebulizer studies = details: 0.12% NaCl (20 mM Cl−), Pari LC Plus nebulizer, 5 mL
Text: The collection apparatus, nebulizer, and imp actor are rinsed with mobile phase and assayed by HPLC.

Solubility of DHEA-S = format: physicochemical; details: 15° C., 20 mM Na+, from Ksp by quadratic formula
Text: Inhalation of pure water can produce a cough stimulus. […] The temperature effect is weaker at high NaCl concentrations.

HT-29 SF cells [5] = assay: DHEA effect on cell growth; format: cell-based, human
HT-29 SF cells [6] = assay: DHEA effect on cell cycle (flow cytometry); format: cell-based, human
Experimental: Cells were plated at 10^5/60-mm dish in duplicate. […] Cultures were trypsinized following 0, 24, 48, or 74 hours and fixed and stained using a modification of a procedure of Bauer et al., Cancer Res. 46, 3173-3178 (1986). Briefly, cells were collected by centrifugation and resuspended in cold phosphate-buffered saline. Cells were fixed in 70% ethanol, washed, and resuspended in phosphate-buffered saline.
After 24, 48, and 72 hours, cells were harvested, fixed in ethanol, and stained with propidium iodide, and the DNA content/cell was determined by flow cytometric analysis. The percentage of cells in G1, S, and G2M phases was calculated using the Cellfit cell cycle analysis program. S phase is marked by a quadrangle for clarity. Representative histograms from duplicate determinations are shown. The experiment was repeated three times.

NK1 = details: printed under the compound name in the table, no method or source; cited from earlier work

Question: Which “% Inhibition of Histamine Release” value ([1]; antagonist 1 nM) does the source give for C=CCN1CC[C@]23c4c5ccc(O)c4O[C@H]2C(=O)CC[C@@]3(O)[C@H]1C5 [Naloxone, naloxone] here?
Answer: −1%

Question: And the “% Inhibition of Histamine Release” value ([1]; antagonist 10 nM)?
Answer: −1%

Question: And the “% Inhibition of Histamine Release” value ([1]; antagonist 100 nM)?
Answer: −2%

Question: What about the “effect on compound 48/80 induced mast cell degranulation” value [1] of the same molecule?
Answer: minimal effect (if any)

Question: For Nc1nc(=O)c2c([nH]1)NCC(CNc1ccc(C(=O)N[C@@H](CCC(=O)O)C(=O)O)cc1)N2C=O (mixture of isomers) [Folinic Acid, Folinic acid], which “Intracellular adenosine, Brain” value (Intracellular adenosine; Fischer 344 rats, once daily 14 days, DHEA 300 mg/kg, methyltestosterone 120 mg/kg, folinic acid 50 mg/kg i.p., mean ± SEM, control 0.5 ± 0.04) is on record?
Answer: 0.72 ± 0.09 nmols/mg protein

Question: And the “effect of folinic acid administered alone on adenosine levels” value (Intracellular adenosine; rats, folinic acid 50 mg/kg i.p. 14 days)?
Answer: increase in adenosine levels for all organs studied

Question: And the “effect of coadministration of folinic acid on steroid-mediated adenosine depletion” value (Intracellular adenosine; rats, folinic acid 50 mg/kg i.p. with DHEA or methyltestosterone)?
Answer: completely abrogated steroid-mediated adenosine depletion

Question: With C[C@]12CC[C@H](OS(=O)(=O)[O-])CC1=CC[C@@H]1[C@@H]2CC[C@]2(C)C(=O)CC[C@@H]12.[Na+] [Anhydrous DHEA-S] as the molecule, how does the “DHEA % formed from Anhydrous DHEA-S at 50° C.” value (“DHEA % formed … at 50° C.” for short) ([2]; 1 week) read?
Answer: 9.817%

Question: And the “DHEA % formed … at 50° C.” value ([2]; 2 weeks)?
Answer: 14.954%

Question: What about the “DHEA % formed … at 50° C.” value ([2]; 4 weeks) of the same molecule?
Answer: 20.171%

Question: What about the “DHEA % formed from Anhydrous DHEA-S” value ([2]; 1 week) of the same molecule?
Answer: 2.694%

Question: What about the “DHEA % formed from Anhydrous DHEA-S” value ([2]; 2 weeks) of the same molecule?
Answer: 2.370%

Question: What about the “DHEA % formed from Anhydrous DHEA-S” value ([2]; 4 weeks) of the same molecule?
Answer: 2.666%

Question: And the “DHEA % formed from Anhydrous DHEA-S” value ([2]; Time (Weeks), initial value)?
Answer: 2.774%

Question: Which “Percent DHEA formed from DHEA-S Dihydrate at 50° C.” value (from here on “Percent DHEA formed … at 50° C.”) ([2]; 1 week) does the source give for CC12CCC3C(CC=C4CC(OS(=O)(=O)[O-])CCC43C)C1CCC2=O.[Na+] (centres unmarked) [DHEA-S Dihydrate] here?
Answer: 0.216%

Question: And the “Percent DHEA formed … at 50° C.” value ([2]; 3 weeks)?
Answer: 0.317%

Question: And the “Percent DHEA formed … at 50° C.” value ([2]; 4 weeks)?
Answer: 0.374%

Question: What about the “Percent DHEA formed from DHEA-S Dihydrate” value ([2]; 4 weeks) of the same molecule?
Answer: 0.218%

Question: What about the “Percent DHEA formed from DHEA-S Dihydrate” value ([2]; Time (Weeks), initial value) of the same molecule?
Answer: 0.213%

Question: What does the source list for C[C@]12CC[C@H](OS(=O)(=O)[O-])CC1=CC[C@@H]1[C@@H]2CC[C@]2(C)C(=O)CC[C@@H]12.[Na+] [DHEA-S, sodium dehydroepiandrostenone sulfate]?
Answer: drug degradation during jet milling micronization [3]: no detectable degradation of the drug during the jet milling micronization process; stability of nebulizer formulation [4]: stable for at least one day at RT; highest solution concentration that will not precipitate during nebulization (Nebulizer studies): approximately 7.5 mg/mL; calculated DHEA-S solution concentration (Solubility of DHEA-S): 27.5 mM and 10.7 mg/mL

Question: What does the source list for C[C@]12CC[C@H](O)CC1=CC[C@@H]1[C@@H]2CC[C@]2(C)C(=O)CC[C@@H]12 [DHEA, 3β-hydroxyandrost-5-en-17-one]?
Answer: exposure time after which cell number was reduced compared to controls (HT-29 SF cells [5]; 12.5 μM): 72 h; exposure time after which cell number was reduced compared to controls (HT-29 SF cells [5]; 25 μM): 48 h; exposure time after which cell number was reduced compared to controls (HT-29 SF cells [5]; 50 μM): 48 h; exposure time after which cell number was reduced compared to controls (HT-29 SF cells [5]; 200 μM): 24 h; effect on tissue adenosine (Intracellular adenosine; rat, in vivo): multi-organ depletion of adenosine; cell cycle effect (summary) (HT-29 SF cells [6]; 25-200 μM, 24-72 hours): G1 block in HT-29 SF cells in a time-and dose-dependent manner; cell cycle distribution (HT-29 SF cells [6]; 25 or 50 μM, 72 hours): the percentage of cells in G1 phase was increased after 72 hours

Question: With C[C@]12CCC(=O)C=C1CC[C@@H]1[C@@H]2CC[C@@]2(C)[C@H]1CC[C@]2(C)O [Methyltestosterone, methyltestosterone] as the molecule, how does the “Intracellular adenosine, Brain” value (Intracellular adenosine; rat, in vivo) read?
Answer: 0.42 ± 0.06 and 0.32 ± 0.03

Question: And the “Intracellular adenosine, Heart” value (Intracellular adenosine; rat, in vivo)?
Answer: 8.3 ± 1.0 and 6.0 ± 0.4

Question: And the “effect on tissue adenosine” value (Intracellular adenosine; rat, in vivo)?
Answer: multi-organ depletion of adenosine

Question: What does the source list for CC(C)Oc1cccc(CC(=O)N2CCC[C@](CC[N+]34CCC(c5ccccc5)(CC3)CC4)(c3ccc(Cl)c(Cl)c3)C2)c1 [SR 140333]?
Answer: IC50 (NK1): 50 nM; % Inhibition of Histamine Release ([1]; antagonist 1 nM): 1%; % Inhibition of Histamine Release ([1]; antagonist 30 nM): −8%; % Inhibition of Histamine Release ([1]; antagonist 100 nM): −5%; effect on compound 48/80 induced mast cell degranulation [1]: minimal effect (if any)
